The source made the active and inactive calls.
Key:
[1] = potency of ADAM10 substrate cleavage blockers – biochemical, QFRET, dose response (AID 743254);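 also: ADAM10 enzyme with the DM2 quenched FRET peptide as substrate; EDANS fluorescence gain as the protease cuts the substrate; inhibitor potency against ADAM10 proteolytic activity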
[2] = molecular target: Disintegrin and metalloproteinase domain-containing protein 17 (Homo sapiens, UniProt P78536); test: inhibition of ADAM17 substrate cleavage – biochemical, quenched FRET substrate, counter-screen for ADAM10 exosite inhibitor project, dose response (AID 743253)
[3] = reduction of Shn3 3'UTR-driven luciferase in osteoblasts – cell-based, Clone20 osteoblasts, firefly luciferase, cherry-picked, dose response (AID 624132); format: functional;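 also: firefly luciferase luminescence from reporter carrying the Shn3 3'UTR in osteoblasts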
[4] = loss of viability in HepG2 cells – cell-based, CellTiter-Glo, cherry-picked, cytotoxicity control for Shn3 inhibitor project, dose response (AID 624134); format: functional
[5] = non-specific 3'UTR reporter inhibition in Clone20-Shn3RL – cell-based, Renilla luciferase, cherry-picked, counter-screen for Shn3 inhibitor project, dose response (AID 624133); format: functional
Protein Wnt-3a = Protein Wnt-3a (Mus musculus, UniProt P27467); test: antagonism of Wnt3a pathway luciferase reporter – Wnt-LIGHT cells, luminescence, selectivity assay for Gli-SUFU antagonist project, dose response (AID 651570); format: functional; details: read-out: IC50_Mean;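 also: Wnt-LIGHT reporter cells stimulated with conditioned medium from Wnt3a-producing cells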
Galanin receptor type 3 = molecular target: T1, Galanin receptor type 3 (Homo sapiens, UniProt O60755); test: Fluorescence-based cell-based primary high throughput dose response assay to identify antagonists of the Galanin Receptor 3 (GalR3).; format: functional
T1 sequence (O60755 whole entry): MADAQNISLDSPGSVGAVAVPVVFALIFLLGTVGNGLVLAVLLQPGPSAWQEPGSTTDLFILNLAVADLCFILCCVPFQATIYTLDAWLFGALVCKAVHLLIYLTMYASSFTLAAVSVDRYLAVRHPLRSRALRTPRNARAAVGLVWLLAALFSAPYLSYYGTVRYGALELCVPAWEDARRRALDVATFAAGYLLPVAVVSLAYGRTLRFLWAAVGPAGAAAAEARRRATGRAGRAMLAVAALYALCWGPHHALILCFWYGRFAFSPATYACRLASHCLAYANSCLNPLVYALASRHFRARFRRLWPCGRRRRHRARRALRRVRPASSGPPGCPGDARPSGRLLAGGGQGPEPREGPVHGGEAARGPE

cells [6] = format: functional, cell-based; details: HEK-CNG
[7] = molecular target: COUP transcription factor 2 (Homo sapiens, UniProt P24468); test: Luminescence-based cell-based high throughput dose response assay to identify inhibitors of COUP-TFII (NR2F2).; format: functional;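 also: HEK293 cells transiently cotransfected with COUP-TFII expression vector and reporter; luciferase reporter luminescence driven by COUP-TFII from the pX2-168 reporter plasmid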
Major prion protein = Major prion protein (Homo sapiens, UniProt P04156); format: functional, cell-based
cells [8] = test: cells
[9] = viability loss in HepG2 liver cells – cell-based, ATP luminescence, cherry-pick, set 6, cytotoxicity control, dose response (AID 1053125); format: functional
cells [10] = details: A549
[11] = IC50 of Artemis nuclease activity blockers – biochemical, fluorescence intensity, dose response (AID 720701); format: functional;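 also: Artemis endonuclease enzyme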
[12] = molecular target: FAD-linked sulfhydryl oxidase ALR (Homo sapiens, UniProt P55789); test: ALR-catalysed DTT oxidation blockers – biochemical, H2O2 detection, luminescence, cherry-pick, dose response (AID 493248)
[13] = molecular target: T2, Rac GTPase-activating protein 1 (Homo sapiens, UniProt Q9H0H5); test: blockers of MgcRacGAP-driven Rac1 GTP hydrolysis – biochemical, ADP Hunter fluorescence, primary and confirmatory, confirmation (AID 624330); format: functional
T2 sequence (Q9H0H5 whole entry): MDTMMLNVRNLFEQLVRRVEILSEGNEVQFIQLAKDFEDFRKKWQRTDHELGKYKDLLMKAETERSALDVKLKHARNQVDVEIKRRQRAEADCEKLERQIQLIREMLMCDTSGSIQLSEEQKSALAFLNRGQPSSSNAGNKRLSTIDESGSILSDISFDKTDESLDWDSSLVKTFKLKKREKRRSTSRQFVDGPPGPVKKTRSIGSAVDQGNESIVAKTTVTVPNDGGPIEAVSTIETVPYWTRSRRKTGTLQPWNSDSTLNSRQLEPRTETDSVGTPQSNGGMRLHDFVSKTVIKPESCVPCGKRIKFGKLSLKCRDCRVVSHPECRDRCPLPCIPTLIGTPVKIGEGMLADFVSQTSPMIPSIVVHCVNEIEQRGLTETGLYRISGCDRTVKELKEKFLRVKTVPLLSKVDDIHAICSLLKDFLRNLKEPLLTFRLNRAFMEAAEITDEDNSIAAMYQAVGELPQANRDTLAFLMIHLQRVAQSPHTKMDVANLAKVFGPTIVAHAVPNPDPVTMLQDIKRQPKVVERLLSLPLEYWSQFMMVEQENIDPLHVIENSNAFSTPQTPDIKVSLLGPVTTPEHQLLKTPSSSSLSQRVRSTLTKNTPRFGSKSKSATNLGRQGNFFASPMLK

Protein Tat = Protein Tat (Human immunodeficiency virus type 1 group M subtype B (isolate HXB2)(HIV-1), UniProt P04608); format: functional;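 also: tat binding to TAR RNA read out by fluorescence polarization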
[14] = molecular target: Peroxisome proliferator-activated receptor gamma/Nuclear receptor coactivator 1 (Homo sapiens, UniProt P37231); test: (§1) TR-FRET dose response biochemical High Throughput Screening assay for agonists of the steroid receptor coactivator 1 (SRC-1) recruitment by the peroxisome proliferator-activated receptor gamma (PPAR gamma): non-selective agonists. [Related pubchem assays (depositor defined):AID1300, AID1808, AID504735, AID631]; format: protein assay
[15] = molecular target: Peroxisome proliferator-activated receptor gamma/Nuclear receptor coactivator 3 (Homo sapiens, UniProt P37231); test: as §1, with “3 (SRC-3)” for “1 (SRC-1)”, “assays: 1301 (Confirmation screen.), 1048 (Primary screen.)]” for “assays (depositor defined):AID1300, AID1808, AID504735, AID631]”; format: functional
[16] = molecular target: Peroxisome proliferator-activated receptor gamma/Nuclear receptor coactivator 2 (Homo sapiens, UniProt P37231); test: TR-FRET dose response biochemical High Throughput Screening assay for agonists of the steroid receptor coactivator 2 (SRC-2) recruitment by the peroxisome proliferator-activated receptor gamma (PPAR gamma): non-selective agonists. [Related pubchem assays: 1297, 1032 ]; format: functional

SMILES: NC(=O)[C@@H]1CC2(CC(c3cccc(NC(=O)CC(c4ccccc4)c4ccccc4)c3)=NO2)CN1C(=O)COc1ccc(Cl)cc1 (some centres not stated)
- IC50 [1]: > 69.5 µM (inactive)
- IC50 [2]: > 69.5 µM (inactive)

SMILES: Cc1nn(C)c(C(=O)NCc2ccc(Cl)cc2)c1Cl
- AC50 [3]: 1.74 µM (active)
- AC50 [4]: 49.8 µM (active)
- AC50 [5]: 6.29 µM (active)
- IC50 (Protein Wnt-3a): 1.92 µM (active)
- IC50 (Galanin receptor type 3): 0.158 µM (active)
- EC50 (cells [6]): > 29.9 µM (inactive)
- IC50 [7]: 14 µM (inactive)

SMILES: CCOC(=O)N1CCN(C(=O)COc2ccc3ccccc3c2Br)CC1
- IC50 (Major prion protein): 6.28 µM (active)
- IC50 (cells [8]): > 138 µM (inactive)

SMILES: CN(C)CCOCCOc1ccc(Cl)c2ccccc12
- AC50 [9]: > 52 µM (inactive)
- AC50 (cells [10]): > 52 µM (inactive)

SMILES: CCOC(=O)C1CCCN(Cc2nc(N)nc(Nc3ccc(Cl)cc3)n2)C1 (configuration not stated)
- IC50 [11]: > 20 µM (inactive)

SMILES: CC(=O)N1CCN(c2ccc(NCc3ccc(F)cc3)cc2)CC1
- AC50 [12]: 0.198 µM (active)
- IC50 [13]: 12.9 µM (active)
- IC50 (Protein Tat): > 100 µM (inconclusive)

SMILES: CNC(=O)NC(=O)CSc1nc(-c2cccs2)c(C#N)c(=O)[nH]1
- EC50 [14]: > 79.4 µM (inactive)
- EC50 [15]: > 79.4 µM (not active)
- EC50 [16]: > 79.4 µM (not active)
- IC50 (Major prion protein): 0.876 µM (active)

SMILES: CNC(=O)NC(=O)CSc1nc(O)c(C#N)c(-c2cccs2)n1
- IC50 (cells [8]): > 138 µM (inactive)
